# Tests used:
# P-gp = P-gp (Homo sapiens, UniProt P08183); assay: P-gp inhibition: [3H]digoxin accumulation in MDCK-MDR1 cells; assay type: cell-based
# Bcrp1 [1] = biological target: T1, Bcrp1 (Mus musculus, UniProt Q7TMS5); assay: Bcrp1 inhibition: [3H]abacavir accumulation in MDCK-Bcrp1 cells; assay type: cell-based, murine; settings: 10, 25 and 50μM inhibitor
# T1 sequence (Q7TMS5 1-657): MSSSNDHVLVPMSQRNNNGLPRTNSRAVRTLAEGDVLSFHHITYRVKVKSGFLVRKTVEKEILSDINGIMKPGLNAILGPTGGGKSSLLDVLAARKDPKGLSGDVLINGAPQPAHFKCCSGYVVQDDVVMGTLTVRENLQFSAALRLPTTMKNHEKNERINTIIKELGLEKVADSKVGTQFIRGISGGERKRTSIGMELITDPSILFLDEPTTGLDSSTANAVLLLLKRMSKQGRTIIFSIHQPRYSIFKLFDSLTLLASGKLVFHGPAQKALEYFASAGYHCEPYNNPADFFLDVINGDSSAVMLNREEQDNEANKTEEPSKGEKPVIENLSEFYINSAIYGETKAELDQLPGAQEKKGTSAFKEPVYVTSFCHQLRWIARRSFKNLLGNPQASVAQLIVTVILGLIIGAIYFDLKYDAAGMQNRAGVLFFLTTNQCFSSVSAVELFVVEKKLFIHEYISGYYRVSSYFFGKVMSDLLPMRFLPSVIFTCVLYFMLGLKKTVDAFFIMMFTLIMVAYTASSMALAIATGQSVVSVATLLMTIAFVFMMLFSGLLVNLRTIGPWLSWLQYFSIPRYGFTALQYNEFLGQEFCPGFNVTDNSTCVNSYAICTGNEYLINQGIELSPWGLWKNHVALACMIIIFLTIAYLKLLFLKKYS
# [2] = Bi-directional transport across MDCKII-WT cell monolayers; assay type: in vitro ADME, canine; settings: dog, MDCK
# MDCK-WT cell monolayers = assay: as above; assay type: in vitro ADME, canine; settings: 5μM vandetanib
# P-gp (MDR1) [3] = biological target: T2, P-gp (MDR1) (Homo sapiens, UniProt P08183); assay: Bi-directional transport across MDCKII-MDR1 cell monolayers; assay type: in vitro ADME
# T2 sequence (P08183 whole entry): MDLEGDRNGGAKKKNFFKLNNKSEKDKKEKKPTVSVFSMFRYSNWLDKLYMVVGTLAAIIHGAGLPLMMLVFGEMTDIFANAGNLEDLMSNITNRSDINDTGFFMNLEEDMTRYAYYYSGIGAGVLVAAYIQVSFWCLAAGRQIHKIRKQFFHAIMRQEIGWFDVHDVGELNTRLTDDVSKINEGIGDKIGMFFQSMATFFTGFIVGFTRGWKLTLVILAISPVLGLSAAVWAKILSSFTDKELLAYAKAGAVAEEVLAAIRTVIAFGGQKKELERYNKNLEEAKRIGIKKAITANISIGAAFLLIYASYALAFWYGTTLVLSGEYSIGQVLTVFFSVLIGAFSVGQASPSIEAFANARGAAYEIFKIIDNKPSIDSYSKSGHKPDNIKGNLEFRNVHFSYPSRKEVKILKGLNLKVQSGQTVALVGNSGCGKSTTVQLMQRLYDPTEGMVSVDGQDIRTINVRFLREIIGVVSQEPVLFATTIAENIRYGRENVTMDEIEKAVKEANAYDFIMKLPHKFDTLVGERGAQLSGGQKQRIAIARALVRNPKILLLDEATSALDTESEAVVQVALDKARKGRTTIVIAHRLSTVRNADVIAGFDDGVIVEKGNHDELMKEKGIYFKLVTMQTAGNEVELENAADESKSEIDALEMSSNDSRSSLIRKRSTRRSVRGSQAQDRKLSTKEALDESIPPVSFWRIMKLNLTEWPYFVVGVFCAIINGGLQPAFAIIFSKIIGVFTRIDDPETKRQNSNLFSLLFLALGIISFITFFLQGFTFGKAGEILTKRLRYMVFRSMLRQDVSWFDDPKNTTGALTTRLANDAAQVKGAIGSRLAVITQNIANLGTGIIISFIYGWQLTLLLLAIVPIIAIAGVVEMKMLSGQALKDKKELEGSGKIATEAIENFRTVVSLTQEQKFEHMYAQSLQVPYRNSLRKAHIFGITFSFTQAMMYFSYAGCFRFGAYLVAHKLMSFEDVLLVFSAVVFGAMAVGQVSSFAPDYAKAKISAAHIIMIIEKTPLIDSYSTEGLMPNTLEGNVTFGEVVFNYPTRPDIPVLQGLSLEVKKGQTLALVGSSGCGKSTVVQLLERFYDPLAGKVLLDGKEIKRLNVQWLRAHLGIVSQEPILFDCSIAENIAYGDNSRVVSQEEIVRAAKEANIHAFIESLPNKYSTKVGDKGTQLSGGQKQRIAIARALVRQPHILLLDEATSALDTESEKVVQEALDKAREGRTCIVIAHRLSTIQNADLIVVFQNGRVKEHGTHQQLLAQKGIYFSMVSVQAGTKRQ
# Bcrp1 [4] = biological target: T1, Bcrp1; assay: Bi-directional transport across MDCKII-Bcrp1 cell monolayers; assay type: in vitro ADME, murine
# [5] = Brain accumulation and plasma pharmacokinetics of vandetanib in FVB mice; assay type: in vivo, male FVB wild type mice
# P-gp (MDR1) [6] = biological target: T2, P-gp (MDR1); assay: Cellular accumulation of vandetanib in MDCKII-MDR1 vs parent WT cells; settings: 100nM vandetanib, 60 min accumulation
# [7] = male, FVB, mouse, plasma, iv, 5 mg/kg
# Sequence of P-gp (P08183 whole entry): as above
smiles,measurement,setting,value
CO[C@H]1C[C@@H]2CC[C@@H](C)[C@@](O)(O2)C(=O)C(=O)N2CCCC[C@H]2C(=O)O[C@H]([C@H](C)C[C@@H]2CC[C@@H](OCCO)[C@H](OC)C2)CC(=O)[C@H](C)/C=C(\C)[C@@H](O)[C@@H](OC)C(=O)[C@H](C)C[C@H](C)/C=C/C=C/C=C/1C [everolimus],IC50,P-gp,3 µM
same,Intracellular accumulation of [3H]abacavir in MDCK-Bcrp1 cells in the presence of inhibitor,Bcrp1 [1],increased significantly
COc1cc2c(Nc3ccc(Br)cc3F)ncnc2cc1OCC1CCN(C)CC1 [Vandetanib],"Papp A→B at 240 min, 5 μM",[2],7.57 ± 0.52 ×10⁻⁶ cm/s
same,"Papp B→A at 240 min, 5 μM",[2],8.08 ± 0.17 ×10⁻⁶ cm/s
same,"efflux ratio at 240 min, 5 μM",[2],1.06
same,Directionality of vandetanib transport across WT cells,MDCK-WT cell monolayers,no directionality in transport
same,Directional flux of vandetanib across MDR1 transfected cells,P-gp (MDR1) [3]; 5μM vandetanib,No significant difference was observed in the directional flux
same,"Papp A→B at 240 min, 5 μM","P-gp (MDR1) [3]; dog, MDCK-MDR1",5.73 ± 0.29 ×10⁻⁶ cm/s
same,"Papp B→A at 240 min, 5 μM","P-gp (MDR1) [3]; dog, MDCK-MDR1",4.66 ± 0.26 ×10⁻⁶ cm/s
same,"efflux ratio at 240 min, 5 μM","P-gp (MDR1) [3]; dog, MDCK-MDR1",0.81
same,"Papp A→B at 240 min, 5 μM",Bcrp1 [4],5.66 ± 1.26 ×10⁻⁶ cm/s
same,"Papp B→A at 240 min, 5 μM",Bcrp1 [4],42.3 ± 2.64 ×10⁻⁶ cm/s
same,"efflux ratio at 240 min, 5 μM",Bcrp1 [4],7.5
same,AUC(0-t),"[5]; male, FVB, mouse, brain, iv, 5 mg/kg",1050 ng·h/mL
same,AUC(0-t),[5]; [7],5090 ng·h/mL
same,Vd,[5]; [7],1.3 L/kg
same,clearance,[5]; [7],9.36 mL/min/kg
same,Brain concentrations compared with plasma concentrations,"[5]; vandetanib 5mg/kg i.v. alone, 15, 30, 60 and 120min",Brain concentrations were significantly lower than the plasma concentration
same,Vandetanib accumulation in MDR1 overexpressing cells versus WT cells,P-gp (MDR1) [6],not statistically different from WT cells
CO[C@H]1C[C@@H]2CC[C@@H](C)[C@@](O)(O2)C(=O)C(=O)N2CCCC[C@H]2C(=O)O[C@H]([C@H](C)C[C@@H]2CC[C@@H](OC(=O)C(C)(CO)CO)[C@H](OC)C2)CC(=O)[C@H](C)/C=C(\C)[C@@H](O)[C@@H](OC)C(=O)[C@H](C)C[C@H](C)/C=C/C=C/C=C/1C [temsirolimus],IC50,P-gp,3.5 µM
same,Intracellular accumulation of [3H]abacavir in MDCK-Bcrp1 cells in the presence of inhibitor,Bcrp1 [1],increased significantly
